The values that follow come from BindingDB's records for doi:10.1016/s0960-894x(00)00493-5 (Wyeth-Ayerst Research, 2000).

The target in this assay is Proto-oncogene tyrosine-protein kinase Src (Homo sapiens, UniProt P12931). In words: Kinase inhibition Assay. To be noted: pH 7.5; 30 °C. On the procedure: Src kinase activity was measured in an ELISA format. IC50 is the inhibitor concentration which inhibits 50% of kinase activity that catalyzes the transfer of the terminal phosphate from ATP to the substrate.
Proto-oncogene tyrosine-protein kinase Src, sequence (P12931 2-536 limits assumed): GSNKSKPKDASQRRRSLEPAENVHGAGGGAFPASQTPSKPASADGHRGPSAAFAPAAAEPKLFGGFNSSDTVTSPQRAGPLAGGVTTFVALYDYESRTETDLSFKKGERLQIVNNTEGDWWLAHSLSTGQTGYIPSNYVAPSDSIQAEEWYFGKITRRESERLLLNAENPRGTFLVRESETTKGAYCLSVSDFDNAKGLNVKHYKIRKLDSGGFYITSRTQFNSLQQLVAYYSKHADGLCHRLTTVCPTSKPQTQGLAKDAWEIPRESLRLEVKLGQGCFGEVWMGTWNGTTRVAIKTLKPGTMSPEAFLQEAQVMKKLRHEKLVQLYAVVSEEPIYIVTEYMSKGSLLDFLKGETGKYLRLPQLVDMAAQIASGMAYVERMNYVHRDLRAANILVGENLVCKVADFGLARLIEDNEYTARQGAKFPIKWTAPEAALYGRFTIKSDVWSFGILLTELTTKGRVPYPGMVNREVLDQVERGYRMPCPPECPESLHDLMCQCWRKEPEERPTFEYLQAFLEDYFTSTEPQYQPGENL

Where only a bound is given, the exact number is not on record here.

`COc1cc2ncc(C#N)c(NCc3cc(OC)c(OC)c(OC)c3)c2cc1OC` [6,7-dimethoxy-4-{[(3,4,5-trimethoxyphenyl)methyl]amino}quinoline-3-carbonitrile] had an IC50 of more than 10 µM.
